From patent US20260250257A1, “ANTIBACTERIAL AND SYNERGISTIC ACTIVE COMPOUND AND USE THEREOF” (EAST CHINA UNIVERSITY OF SCIENCE AND TECHNOLOGY, priority 2023, published 2026)

Experiments:
Assay type in all cases: cell-based
[1] = system: ATCC9027 strain (Pseudomonas aeruginosa); experiment: Checkerboard antibacterial synergistic activity test with polymyxin E (FIC); set-up: key: FIC≤0.5 synergy; 0.5–1 additive; 1–2 indifferent; ≥2 antagonism; conditions: combined with polymyxin E
Procedure, shortened: (§1)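 FIC values come from a microdilution checkerboard crossing polymyxin E against the test compound in MH medium, with uninoculated blanks included. Incubation lasts 16 h at 37° C. Scoring: synergy at FIC ≤0.5, additivity between 0.5 and 1, indifference between 1 and 2, antagonism at 2 or above.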

[2] = system: ATCC19606 strain (Acinetobacter baumannii); experiment: as above; set-up: key: FIC≤0.5 synergy; 0.5–1 additive; 1–2 indifferent; ≥2 antagonism; conditions: combined with polymyxin E
Procedure, shortened: as §1

[3] = system: ATCC25922 strain (Escherichia coli); experiment: as above; set-up: key: FIC≤0.5 synergy; 0.5–1 additive; 1–2 indifferent; ≥2 antagonism; conditions: combined with polymyxin E
Procedure, shortened: as §1

[4] = system: ATCC13883 strain (Klebsiella pneumoniae); experiment: as above; set-up: key: FIC≤0.5 synergy; 0.5–1 additive; 1–2 indifferent; ≥2 antagonism; conditions: combined with polymyxin E
Procedure, shortened: as §1

[5] = system: ATCC9027 strain (Pseudomonas aeruginosa); experiment: Broth microdilution, antibacterial activity of the compound used alone
Description: (§2) The broth microdilution method was used to test the antibacterial effects of the compounds of the present invention against various Gram-negative bacterial strains when used alone.

[6] = system: ATCC19606 strain (Acinetobacter baumannii); experiment: as above
Description: as §2

[7] = system: ATCC25922 strain (Escherichia coli); experiment: as above
Description: as §2

[8] = system: ATCC13883 strain (Klebsiella pneumoniae); experiment: as above
Description: as §2

SMILES | Synergistic activity (FIC value) ATCC9027 [1] | Synergistic activity (FIC value) ATCC19606 [2] | Synergistic activity (FIC value) ATCC25922 [3] | Synergistic activity (FIC value) ATCC13883 [4] | Antibacterial activity of the compound of Formula I, ATCC9027 [5] | Antibacterial activity of the compound of Formula I, ATCC19606 [6] | Antibacterial activity of the compound of Formula I, ATCC25922 [7] | Antibacterial activity of the compound of Formula I, ATCC13883 [8]
NC(N)=Nc1nc(-c2cccc(Oc3ccc(Cl)cc3Cl)c2)cs1 [Compound I-95] | 0.04 | 0.38 | 0.04 | 0.19 | 256 µg/mL | 256 µg/mL | 256 µg/mL | 256 µg/mL
Cc1oc(N=C(N)N)nc1-c1cccc2ccc(Cl)cc12 [Compound I-63] | 0.63 | 0.75 | 0.5 | 0.38 | 256 µg/mL | 256 µg/mL | 256 µg/mL | 256 µg/mL
CC(C)c1ccc(-c2csc(N=C(N)N)n2)cc1 [Compound I-17] | 0.63 | 0.28 | 0.5 | 0.25 | 256 µg/mL | 256 µg/mL | 256 µg/mL | 256 µg/mL
CC(=O)Nc1cc(-c2csc(N=C(N)N)n2)ccc1-c1ccccc1 [Compound I-75] | 0.31 | 0.12 | 0.38 | 0.31 | 256 µg/mL | 256 µg/mL | 256 µg/mL | 256 µg/mL
Cc1ccc2c(-c3coc(N=C(N)N)n3)cccc2c1 [Compound I-59] | 0.62 | 0.15 | 0.39 | 0.33 | 256 µg/mL | 256 µg/mL | 256 µg/mL | 256 µg/mL
CC(C)c1cc(-c2nc(N=C3NCCCN3)sc2Cl)cc(C(C)C)c1O [Compound I-168] | 0.63 | 0.28 | 0.5 | 0.25 | 256 µg/mL | 256 µg/mL | 256 µg/mL | 256 µg/mL
Fc1sc(N=C2NCCCN2)nc1-c1cc(Br)cc(Br)c1 [Compound I-177] | 1.25 | 0.5 | 0.63 | 1.25 | 256 µg/mL | 256 µg/mL | 256 µg/mL | 256 µg/mL
Fc1ccc(-c2csc(N=C3NCCCN3)n2)c(Oc2ccc(Cl)cc2Cl)c1 [Compound I-151] | 0.28 | 0.03 | 0.18 | 0.16 | 256 µg/mL | 256 µg/mL | 256 µg/mL | 256 µg/mL
Cc1oc(N=C2NCCCN2)nc1-c1cc(NS(C)(=O)=O)ccc1-c1ccco1 [Compound I-139] | 1.25 | 0.75 | 0.5 | 1.25 | 256 µg/mL | 256 µg/mL | 256 µg/mL | 256 µg/mL
